Test results published in US20110224160A1, “Use of Escin for Treatment of Type IV Hypersensitivity Reaction” (MARINOMED BIOTECHNOLOGIE GMBH, priority 2008, published 2011).

Assays:
[1] = system: LPS mediated release of TNF alpha; experiment: LPS mediated release of TNF alpha in primary human blood; format: cell-based
[2] = system: oxazolone induced topical inflammation in BALB/c mice; experiment: oxazolone induced contact dermatitis model (ear swelling); format: in vivo
Procedure: FIG. 1: Efficacy of escin in an oxazalone induced contact dermatitis model. 3 mg/kg of escin were applied intraperitoneally (ip.) 6 h before challenge, 0.9% saline solution served as a vehicle. […] Bars represent the mean of five animals, SEM is indicated.
Escin was evaluated for anti-inflammatory activity by ip. injection in the oxazolone induced topical inflammation in BALB/c mice, which is a model of type IV hypersensitivity reaction, in particular contact dermatitis. The swelling of the challenged ear in comparison to the unchallenged control was determined as a parameter for induced contact dermatitis.

[3] = system: strong hypersensitivity reactions; experiment: strong hypersensitivity reactions in an in vivo model

escin
LPS mediated release of TNF alpha [1]: inhibits dose-dependently | inhibition of oxazolone induced ear swelling ([2]; BALB/c mice, escin 3 mg/kg ip., 6 hours after oxazolone application, challenged vs unchallenged ear): significant inhibition | induced topical inflammation in a mouse model of contact dermatitis ([2]; mouse model of contact dermatitis): reduced induced topical inflammation | effects of strong hypersensitivity reactions [3]: reduces the effects of strong hypersensitivity reactions
